Laboratory results published in the supplement of paper PMC5412046.
Where a name gives a salt, the structure may show the parent alone.

Experiments:
SB.mhdgc-1 = experiment: AC50 for growth inhibition (viability) (log10 M); higher = less potent; details: SB.mhdgc-1 (hereditary c.1380delA CDH1 gastric cancer)
Outline: (§1)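 Gastric cancer cells from hereditary or sporadic patients, 500 per 1536 well, were exposed to compound for 48 h over 11 threefold dilutions from a final 46 μM. CellTiter-Glo luminescence, read on a ViewLux, measured viability, which was normalised to DMSO. The log half-maximal activity concentration came from four-parameter fits, and only high-quality curve classes were kept.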

SB.msgc-1 = experiment: as above; details: SB.msgc-1 (sporadic gastric cancer)
Outline: as §1

Structure (SMILES)	AC50 for growth inhibition (log10 M) (SB.mhdgc-1)	AC50 for growth inhibition (log10 M) (SB.msgc-1)
CCc1ccc(C(=O)Nc2cc(CN3CCN(C)CC3)cc(C(F)(F)F)c2)cc1C#Cc1cnc2ccnn2c1 [PRP003-013]	-5.13	-4.78
CNC(=O)c1cccc(-c2ccc3c(N4CCOC[C@@H]4C)nc(N4CCOC[C@@H]4C)nc3n2)c1 [AZD-2014]	-7.33	-7.03
CC(=O)SCC(Cc1ccccc1)C(=O)NCC(=O)OCc1ccccc1 (configuration not stated) [Racecadotril]	-6.68	-6.23
Cc1nc2ccc(CN(C)c3ccc(C(=O)N[C@@H](CCC(=O)O)C(=O)O)s3)cc2c(=O)[nH]1 [Raltitrexed]	-7.48	-7.28
NC1(C(=O)N[C@@H](CCO)c2ccc(Cl)cc2)CCN(c2ncnc3[nH]ccc23)CC1 [AZD-5363]	-5.23	-5.08
CC(C)=CCC/C(C)=C/CC/C(C)=C/CSc1ccccc1C(=O)O [Salirasib]	-6.43	-5.58
CC(C)(C)c1[nH]cnc1/C=c1\[nH]c(=O)/c(=C/c2ccccc2)[nH]c1=O [Plinabulin]	-7.62	-6.07
CC(C)(C)c1cc(C=C(C#N)C#N)cc(Br)c1O [AG-1024]	-5.03	-5.43
C=C1C(=O)O[C@@H]2[C@H]3O[C@]3(C)CC/C=C(\C)CC[C@@H]12 [Parthenolide]	-5.18	-4.83
N=c1c2c(-c3ccccc3)c(-c3ccccc3)n(Cc3ccccc3)c2ncn1[C@H]1CC[C@H](O)CC1	-4.58	-4.73
Cc1ccc([S+](=O)([O-])Nc2cc(Cl)ccc2C(=O)Nc2nc(-c3ccccc3)cs2)cc1	-4.68	-5.28
CN1CC/C(CC1)=C3\c4ccccc4CC(=O)c2sccc23 [Ketotifen]	-5.53	-4.78
CC(C)Nc1cc(C(F)(F)F)cc2nc(NC(=O)c3cccnc3)nn12 [S-99]	-5.28	-5.08
C[C@@H]1C[C@H]2[C@@H]3CC\C4=C\C(=O)\C=C/[C@]4(C)[C@@]3(Cl)[C@@H](O)C[C@]2(C)[C@@]1(OC(=O)C5=CC=CO5)C(=O)CCl [Mometasone furoate]	-4.83	-5.03
Clc1ccc(C2(c3ccc(-c4cn[nH]c4)cc3)CCNCC2)cc1 [AT-7867]	-4.88	-4.73
CC(=O)N1CCN(c2ccc(OCc3nn(C)c(C)c3-c3cccc4c(CCCOc5cccc6ccccc56)c(C(=O)O)n(Cc5cccnc5)c34)cc2)CC1	-5.63	-5.63
CNC(=O)c1nn(C)c2c1C(C)(C)Cc1cnc(Nc3ccc(N4CCN(C)CC4)cc3)nc1-2 [Milciclib]	-5.93	-5.88
COc1ccc(/C=C\c2cc(OC)c(OC)c(OC)c2)cc1NC(=O)[C@H](N)CO [Ombrabulin]	-7.78	-8.38
Cn1cnc2c(F)c(Nc3ccc(Br)cc3Cl)c(C(=O)NOCCO)cc21 [Selumetinib]	-5.38	-5.18
Cl.Nc1ccn([C@@H]2O[C@H](CO)[C@@H](O)C2(F)F)c(=O)n1 [Gemcitabine]	-7.23	-7.53
COc1cc2c(Oc3ccc(NC(=O)C4(C(=O)Nc5ccc(F)cc5)CC4)cc3F)ccnc2cc1OCCCN1CCOCC1 [Foretinib]	-4.83	-4.73
CC(C)C[C@H](NC(=O)[C@H](CCc1ccccc1)NC(=O)CN1CCOCC1)C(=O)N[C@@H](Cc1ccccc1)C(=O)N[C@@H](CC(C)C)C(=O)[C@@]1(C)CO1 [Carfilzomib]	-7.93	-7.68
COc1cc(C)c(Sc2cnc(NC(=O)c3ccc(CNC(C)C(C)C)cc3)s2)cc1C(=O)N1CCN(C(C)=O)CC1 (configuration not stated) [ITK inhibitor]	-4.78	-4.73
CC(=O)O[C@H]1C[C@@H]2CC[C@@H]3[C@H](CC[C@@]4(C)[C@H]3C[C@H]([N+]3(C)CCCCC3)[C@@H]4OC(C)=O)[C@@]2(C)C[C@@H]1N1CCCCC1 [Vecuronium bromide]	-5.93	-5.58
O=C(Nc1ccncc1)C(=O)c1cn(Cc2ccc(Cl)cc2)c2ccccc12 [Indibulin]	-6.28	-5.68
COc1ccccc1[C@H](c1cccc2ccccc12)[C@@](C)(C#N)C(=O)N1CCC(c2cccc(C(F)(F)F)c2)CC1	-5.18	-5.48

Structure (SMILES)	AC50 for growth inhibition (log10 M) (SB.mhdgc-1)	AC50 for growth inhibition (log10 M) (SB.msgc-1)
CC(C)(O)Cn1c(NC(=O)c2ccc(-c3cn[nH]c3)s2)nc2cc(CN3CCOCC3)ccc21	-5.83	-5.63
COc1c(Cl)cc2c([nH]c3cnccc32)c1NC(=O)c1cccnc1C [MLN-120B]	-5.83	-5.23
O=C(CCCCCCNC(=O)c1cnc(N(c2ccccc2)c2ccccc2)nc1)NO [ACY-1215]	-5.23	-5.08
CC[C@H](NC1=C2N=C[NH]C2=NC=N1)C/3=N/C4=C(C(=CC=C4)F)C(=O)N3C5=CC=CC=C5 [CAL-101]	-5.18	-5.43
C[C@@H]\1COC(=N1)\NC2=CC3=C(C=C2)N=CN=C3NC4=CC(=C(OCC5=NC=CS5)C=C4)Cl [Varlitinib tosylate]	-6.63	-6.53
Cc1c(C(=O)NN2CCCCC2)nn(-c2ccc(Cl)cc2Cl)c1-c1ccc(Cl)cc1 [Rimonabant]	-4.78	-4.63
C[C@](O)(CS(=O)(=O)c1ccc(F)cc1)C(=O)Nc1ccc(C#N)c(C(F)(F)F)c1 [(R)-Bicalutamide]	-6.33	-6.03
CCOC(=O)N1c2ccc(C(F)(F)F)cc2[C@@H](N(Cc2cc(C(F)(F)F)cc(C(F)(F)F)c2)C(=O)OC)C[C@H]1CC [Torcetrapib]	-4.73	-5.18
C=CC(=O)Nc1cccc(Nc2nc(NC3CCC(N(C)C)CC3)nc3c2ncn3C(C)C)c1 (configuration not stated)	-7.88	-7.43
COC[C@H](NC(=O)c1cnc(C)s1)C(=O)N[C@@H](COC)C(=O)N[C@@H](Cc1ccccc1)C(=O)[C@@]1(C)CO1 [Oprozomib]	-6.93	-6.93
COCCn1c2c([n+](Cc3cnccn3)c1C)C(=O)c1ccccc1C2=O [Sepantronium bromide]	-7.33	-7.73
C[C@@H]1C[C@@H]([C@H](O)CC2CC(=O)NC(=O)C2)C(=O)[C@@H](C)C1 [cycloheximide]	-6.73	-6.53
CCCCN1CCC(CNC(=O)c2c3n(c4ccccc24)CCCO3)CC1 [Piboserod hydrochloride]	-5.53	-5.53
CN(Cc1cnc2nc(N)nc(N)c2n1)c1ccc(C(=O)N[C@@H](CCC(=O)O)C(=O)O)cc1 [Methotrexate]	-6.68	-7.48
CCNC(=O)c1cc2c(-c3cc(OCCN4CCCC4)c(Cl)cc3Cl)nc(N)nc2s1	-5.53	-6.38
CCCn1c(=O)c2[nH]c(C34CC5CC3C[C@@H](C5)C4)nc2n(CCC)c1=O [Rolofylline]	-4.68	-4.83
NC1(c2ccc(-c3nc4ccn5c(=O)[nH]nc5c4cc3-c3ccccc3)cc2)CCC1 [MK-2206]	-6.13	-4.68
NCC(=O)Nc1ccc(-n2nc(C(F)(F)F)cc2-c2ccc3c(ccc4ccccc43)c2)cc1	-4.68	-4.63
Oc1ccc(-c2ccc(-c3cc(Nc4cccc(CNC5CC5)c4)[nH]n3)cc2)c(O)c1 [TCS-2312]	-6.28	-5.03
CN1C(=O)\C(=C/C(=C1/NC2=C(F)C=C(I)C=C2)C(=O)NOCCO)C [AZD-8330]	-4.78	-7.58
CNCC[C@H](Oc1cccc2ccccc12)c1cccs1 [Duloxetine hydrochloride]	-5.53	-5.58
C[N]1C=C(C2=C1C=CC=C2)\C3=C(\C(=O)NC3=O)C4=C5CC(CN)CC[N]5C6=C4C=CC=C6 (configuration not stated) [Ro-31-8425]	-4.88	-4.78
COC1=CC=C(C(=C1)OC(C)C)C/2=N/[C@@H]([C@@H](N2C(=O)N3CCNC(=O)C3)C4=CC=C(Cl)C=C4)C5=CC=C(Cl)C=C5 [Nutlin-3]	-5.93	-4.78
N[S+]([O-])(=O)C1=CC=C(NC/2=C/C(=O)C3=CC=CC=C3C2=O)C=C1	-6.23	-4.98
Cc1c(NC(=O)OC[C@@H]2COCCN2)cn2ncnc(Nc3ccc4c(cnn4Cc4cccc(F)c4)c3)c12 [AC-480]	-6.53	-6.68
